Activity calls are given as the source filed them. The calls are words filed in the database; no cut-off is given here. Non-standard residues stand in square brackets, D forms with d. Residues, ends and D or L forms follow the SMILES beside them. ξ: configuration not given here. Pro(3ξ,4ξ-(CH2)4) = O=C(O)[C@H]1NCC2CCCCC21; Tic = O=C(O)[C@@H]1Cc2ccccc2CN1; ξR = N=C(N)NCCCC(N)C(=O)O; Dab = NCC[C@H](N)C(=O)O; Dap = NC[C@H](N)C(=O)O
Legend:
Lipid bilayer [1] = assay: Binding affinity to POPC large unilamellar vesicle at 200 uM by circular dichroism analysis
Lipid bilayer [2] = assay: Binding affinity to POPC large unilamellar vesicles assessed as calcein leakage at 20 uM measured up to 90 mins by fluorimetric analysis
[3] = Binding affinity to anionic sodium dodecyl sulfate micelle at 100 uM by circular dichroism analysis
Lipid bilayer [4] = assay: Binding affinity to 4:1 POPC/POPG large unilamellar vesicle at 100 uM by circular dichroism analysis
Lipid bilayer [5] = assay: Binding affinity to 4:1 POPC/POPG large unilamellar vesicle assessed as lipid:compound molar ratio for complete interaction at 0.2 mM by isothermal titration calorimetric analysis
Lipid bilayer [6] = assay: Binding affinity to POPC large unilamellar vesicle at 0.2 mM by isothermal titration calorimetric analysis
Lipid bilayer [7] = assay: Binding affinity to POPC small unilamellar vesicle at 100 uM by circular dichroism analysis
Lipid bilayer [8] = assay: Binding affinity to 4:1 POPC/POPG large unilamellar vesicle assessed as lipid:compound molar ratio required for integration into membrane at 200 uM by pseudo titration-based circular dichroism analysis
Lipid bilayer [9] = assay: Binding affinity to POPC large unilamellar vesicle assessed as lipid:compound molar ratio for complete interaction at 0.2 mM by isothermal titration calorimetric analysis
[10] = Binding affinity to zwitterionic dodecylphosphocholine micelle at 100 uM by circular dichroism analysis
Lipid bilayer [11] = assay: Binding affinity to 4:1 POPC/POPG large unilamellar vesicles assessed as calcein leakage at 20 uM measured up to 90 mins by fluorimetric analysis
Lipid bilayer [12] = assay: Binding affinity to 4:1 POPC/POPG small unilamellar vesicle at 100 uM by circular dichroism analysis
Lipid bilayer [13] = assay: Binding affinity to POPC large unilamellar vesicle at 200 uM by pseudo titration based circular dichroism analysis
Lipid bilayer [14] = assay: Binding affinity to POPC large unilamellar vesicle at 100 uM by pseudo titration based circular dichroism analysis
Lipid bilayer [15] = assay: Binding affinity to 4:1 POPC/POPG large unilamellar vesicles assessed as calcein leakage at 4 to 20 uM measured up to 90 mins by fluorimetric analysis
Lipid bilayer [16] = assay: Binding affinity to POPC large unilamellar vesicles assessed as calcein leakage at 4 to 20 uM measured up to 90 mins by fluorimetric analysis
Lipid bilayer [17] = assay: Binding affinity to POPC large unilamellar vesicle at 100 uM by circular dichroism analysis
Lipid bilayer [18] = assay: Binding affinity to 4:1 POPC/POPG large unilamellar vesicle at 200 uM by pseudo titration-based circular dichroism analysis
Lipid bilayer [19] = assay: Binding affinity to POPC large unilamellar vesicles assessed as calcein leakage at 4 uM measured up to 90 mins by fluorimetric analysis
Lipid bilayer [20] = assay: Binding affinity to 4:1 POPC/POPG large unilamellar vesicles assessed as calcein leakage at 4 uM measured up to 90 mins by fluorimetric analysis
Lipid bilayer [21] = assay: Binding affinity to 4:1 POPC/POPG large unilamellar vesicle assessed as lipid:compound molar ratio required for integration into membrane at 100 uM by pseudo titration-based circular dichroism analysis

Activity (Lipid bilayer [1]) | Activity (Lipid bilayer [2]) [%] | Activity [3] | Activity (Lipid bilayer [4]) | Activity (Lipid bilayer [5]) [molar ratio] | Kb (Lipid bilayer [6]) [M⁻¹] | Activity (Lipid bilayer [7]) | Activity (Lipid bilayer [8]) [molar ratio] | Activity (Lipid bilayer [9]) [molar ratio] | Activity [10] | Activity (Lipid bilayer [11]) [%] | Activity (Lipid bilayer [12]) | Activity (Lipid bilayer [13]) | Activity (Lipid bilayer [14]) | Activity (Lipid bilayer [15]) | Activity (Lipid bilayer [16]) | Activity (Lipid bilayer [17]) | SMILES | other results
Active | 25 | Active | Active | 30 | 211 | Active | 39 | 120 | Active | 40 | Active | Active |  |  |  |  | CC(=O)NCC(=O)N[C@@H](Cc1ccccc1)C(=O)N1Cc2ccccc2C[C@H]1C(=O)N1CC2CCCCC2[C@H]1C(=O)NCC(=O)N[C@@H](CCCCN)C(=O)N1Cc2ccccc2C[C@H]1C(=O)N1CC2CCCCC2[C@H]1C(=O)NCC(=O)N[C@@H](Cc1ccccc1)C(=O)N1Cc2ccccc2C[C@H]1C(=O)N1CC2CCCCC2[C@H]1C(=O)NCC(=O)N[C@@H](CCCCN)C(=O)N1Cc2ccccc2C[C@H]1C(=O)N[C@@H](CCCCN)C(=O)N[C@@H](CCCCN)C(=O)N[C@@H](CCCCN)C(=O)N[C@@H](CCCCN)C(N)=O (some centres not stated) (Ac-GF[Tic][Pro(3ξ,4ξ-(CH2)4)]GK[Tic][Pro(3ξ,4ξ-(CH2)4)]GF[Tic][Pro(3ξ,4ξ-(CH2)4)]GK[Tic]KKKK-NH2) | 
 |  | Active | Active | 20 | 240 | Active | 22 | 130 | Active |  | Active |  | Active | Active | Active | Active | CC(=O)NCC(=O)N[C@@H](Cc1ccccc1)C(=O)N1Cc2ccccc2C[C@H]1C(=O)N1CC2CCCCC2[C@H]1C(=O)NCC(=O)N[C@@H](CCN)C(=O)N1Cc2ccccc2C[C@H]1C(=O)N1CC2CCCCC2[C@H]1C(=O)NCC(=O)N[C@@H](Cc1ccccc1)C(=O)N1Cc2ccccc2C[C@H]1C(=O)N1CC2CCCCC2[C@H]1C(=O)NCC(=O)N[C@@H](CCN)C(=O)N1Cc2ccccc2C[C@H]1C(=O)N[C@@H](CCN)C(=O)N[C@@H](CCN)C(=O)N[C@@H](CCN)C(=O)N[C@@H](CCN)C(N)=O (some centres not stated) (Ac-GF[Tic][Pro(3ξ,4ξ-(CH2)4)]G[Dab][Tic][Pro(3ξ,4ξ-(CH2)4)]GF[Tic][Pro(3ξ,4ξ-(CH2)4)]G[Dab][Tic][Dab][Dab][Dab][Dab]-NH2) | 
Active | 100 | Active | Active | 55 | 570 | Active |  | 55 | Active | 100 | Active | Active |  |  |  |  | CC(=O)NCC(=O)N[C@@H](Cc1ccccc1)C(=O)N1Cc2ccccc2C[C@H]1C(=O)N1CC2CCCCC2[C@H]1C(=O)NCC(=O)N[C@@H](CN)C(=O)N1Cc2ccccc2C[C@H]1C(=O)N1CC2CCCCC2[C@H]1C(=O)NCC(=O)N[C@@H](Cc1ccccc1)C(=O)N1Cc2ccccc2C[C@H]1C(=O)N1CC2CCCCC2[C@H]1C(=O)NCC(=O)N[C@@H](CN)C(=O)N1Cc2ccccc2C[C@H]1C(=O)N[C@@H](CN)C(=O)N[C@@H](CN)C(=O)N[C@@H](CN)C(=O)N[C@@H](CN)C(N)=O (some centres not stated) (Ac-GF[Tic][Pro(3ξ,4ξ-(CH2)4)]G[Dap][Tic][Pro(3ξ,4ξ-(CH2)4)]GF[Tic][Pro(3ξ,4ξ-(CH2)4)]G[Dap][Tic][Dap][Dap][Dap][Dap]-NH2) | Activity (Lipid bilayer [18]): Active
 | 60 | Active | Active | 30 | 479 | Active |  | 150 | Active | 90 | Active |  | Active |  |  | Active | CC(=O)NCC(=O)N[C@@H](Cc1ccccc1)C(=O)N1Cc2ccccc2C[C@H]1C(=O)N1CC2CCCCC2[C@H]1C(=O)NCC(=O)NC(CCCNC(=N)N)C(=O)N1Cc2ccccc2C[C@H]1C(=O)N1CC2CCCCC2[C@H]1C(=O)NCC(=O)N[C@@H](Cc1ccccc1)C(=O)N1Cc2ccccc2C[C@H]1C(=O)N1CC2CCCCC2[C@H]1C(=O)NCC(=O)N[C@@H](CCCNC(=N)N)C(=O)N1Cc2ccccc2C[C@H]1C(=O)N[C@@H](CCCNC(=N)N)C(=O)N[C@@H](CCCNC(=N)N)C(=O)N[C@@H](CCCNC(=N)N)C(=O)N[C@@H](CCCNC(=N)N)C(N)=O (some centres not stated) (Ac-GF[Tic][Pro(3ξ,4ξ-(CH2)4)]G[ξR][Tic][Pro(3ξ,4ξ-(CH2)4)]GF[Tic][Pro(3ξ,4ξ-(CH2)4)]GR[Tic]RRRR-NH2) | Activity (Lipid bilayer [19]): 60%; Activity (Lipid bilayer [20]): 50%; Activity (Lipid bilayer [21]): 52 molar ratio
 |  | Active | Active | 28 | 191 | Active | 36 | 130 | Active |  | Active |  | Active | Active | Active | Active | CC(=O)NCC(=O)N[C@@H](Cc1ccccc1)C(=O)N1Cc2ccccc2C[C@H]1C(=O)N1CC2CCCCC2[C@@H]1C(=O)NCC(=O)N[C@H](CCCN)C(=O)N1Cc2ccccc2C[C@@H]1C(=O)N1CC2CCCCC2[C@H]1C(=O)NCC(=O)NC(Cc1ccccc1)C(=O)N1Cc2ccccc2C[C@@H]1C(=O)N1CC2CCCCC2[C@@H]1C(=O)NCC(=O)N[C@H](CCCN)C(=O)N1Cc2ccccc2C[C@@H]1C(=O)N[C@H](CCCN)C(=O)N[C@H](CCCN)C(=O)N[C@H](CCCN)C(=O)N[C@H](CCCN)C(N)=O (single isomer, unassigned) | 
